{"source": "patent US20240209028A1", "about": "“CNP COMPOUNDS” (priority 2022, published 2024)", "molecular_target": "T1, human natriuretic peptide receptor 2 (hNPR2) (Homo sapiens, UniProt P20594)", "T1 construct": "expressed in transfected cells; host or cells: HEK293 (ATCC CRL-1573), clone 35, co-transfected with pGloSensor-42F", "T1 sequence (P20594 23-1047)": "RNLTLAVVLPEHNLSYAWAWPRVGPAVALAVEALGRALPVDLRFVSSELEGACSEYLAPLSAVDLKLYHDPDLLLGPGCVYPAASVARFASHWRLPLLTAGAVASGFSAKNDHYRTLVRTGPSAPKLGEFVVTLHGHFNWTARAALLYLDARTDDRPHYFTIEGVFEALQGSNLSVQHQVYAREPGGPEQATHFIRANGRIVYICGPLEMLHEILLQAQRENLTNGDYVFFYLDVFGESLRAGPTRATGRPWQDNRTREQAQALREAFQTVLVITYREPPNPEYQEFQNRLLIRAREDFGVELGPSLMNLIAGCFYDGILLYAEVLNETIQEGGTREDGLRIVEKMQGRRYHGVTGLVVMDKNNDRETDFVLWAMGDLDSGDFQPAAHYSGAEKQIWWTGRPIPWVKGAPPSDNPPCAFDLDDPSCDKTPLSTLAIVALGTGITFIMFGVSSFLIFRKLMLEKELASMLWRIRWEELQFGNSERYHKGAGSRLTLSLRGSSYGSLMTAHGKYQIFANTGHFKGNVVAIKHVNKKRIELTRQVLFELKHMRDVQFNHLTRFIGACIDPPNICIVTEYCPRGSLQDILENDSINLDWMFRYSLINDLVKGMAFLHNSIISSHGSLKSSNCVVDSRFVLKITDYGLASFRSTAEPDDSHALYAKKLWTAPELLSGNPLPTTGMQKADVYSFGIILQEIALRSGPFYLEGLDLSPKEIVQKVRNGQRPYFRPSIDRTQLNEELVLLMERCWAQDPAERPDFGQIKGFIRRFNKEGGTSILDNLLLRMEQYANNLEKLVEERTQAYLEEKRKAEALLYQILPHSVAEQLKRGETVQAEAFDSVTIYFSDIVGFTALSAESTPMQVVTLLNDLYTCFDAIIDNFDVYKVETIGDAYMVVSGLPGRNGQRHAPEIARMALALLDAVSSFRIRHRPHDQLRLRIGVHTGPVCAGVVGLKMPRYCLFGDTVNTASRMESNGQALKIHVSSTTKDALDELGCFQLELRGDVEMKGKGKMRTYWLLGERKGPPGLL", "assay": "In vitro hNPR2 activity assay (cGMP GloSensor reporter, HEK293)", "assay_type": "cell-based", "conditions": "for hNPR2 0% HSA. [EC50% rel CNP]: potency relative to CNP22 (0065)", "summary_of_the_method": "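Potency is the EC50 from a four-parameter logistic fit, also expressed relative to the in-plate CNP22 control (×100), with at least two replicates. Compounds (ten concentrations, […], HSA-free diluent with 1% OVA, 0.01% Tween20) were incubated 30 min at 37 °C on HEK293 cells co-expressing hNPR2 and a GloSensor cGMP luciferase. Luminescence detected with Bright-Glo.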", "note": "Starred links: 1 amine or outer side, 2 acyl side, 3 side chain; linkers in the order of their positions; H or OH if unused. Positions of bridges follow the written chain, without caps; N, C: chain ends. Residues, ends and D or L forms follow the SMILES beside them. *: point of attachment. C18 diacid = O=C(O)CCCCCCCCCCCCCCCCC(=O)*; γGlu = O=C(O)[C@H](CCC(=O)[*:2])N[*:1]; AEEA = NCCOCCOCC(=O)O", "data": [{"compound": "CC[C@H](C)[C@@H]1NC(=O)[C@H](CCCNC(=N)N)NC(=O)[C@H](CC(=O)O)NC(=O)[C@H](CC(C)C)NC(=O)[C@@H]2CCCN2C(=O)[C@H](CC(C)C)NC(=O)CNC(=O)[C@H](Cc2ccccc2)NC(=O)[C@@H](NC(=O)CNC(=O)[C@H](CO)NC(=O)[C@H](CO)NC(=O)[C@@H](NC(=O)CNC(=O)[C@@H](NC(=O)[C@H](CCCCN)NC(=O)[C@H](CCC(N)=O)NC(=O)[C@H](C)NC(=O)CNC(=O)[C@H](Cc2c[nH]cn2)NC(=O)[C@H](Cc2ccc(O)cc2)NC(=O)COCCOCCNC(=O)COCCOCCNC(=O)CC[C@H](NC(=O)CCCCCCCCCCCCCCCCC(=O)O)C(=O)O)[C@@H](C)O)C(C)C)CSSC[C@@H](C(=O)O)NC(=O)CNC(=O)[C@H](CC(C)C)NC(=O)CNC(=O)[C@H](CO)NC(=O)[C@H](CC(C)C)NC(=O)[C@H](CO)NC(=O)CNC1=O", "note": "[compound 1303] ({C18 diacid-γGlu-AEEA-AEEA}-YHGAQKTGVSSGCFGLPLDRIGSLSGLGC-OH; disulfide 13-29)", "values": [{"measurement": "hNPR2 0% HSA. [EC50% rel CNP]", "value": 25.5, "unit": "%"}]}, {"compound": "CC[C@H](C)[C@@H]1NC(=O)[C@H](CCCNC(=N)N)NC(=O)[C@H](CC(=O)O)NC(=O)[C@H](CC(C)C)NC(=O)[C@@H]2CCCN2C(=O)[C@H](CC(C)C)NC(=O)CNC(=O)[C@H](Cc2ccccc2)NC(=O)[C@@H](NC(=O)CNC(=O)[C@H](CCC(N)=O)NC(=O)[C@H](CO)NC(=O)CNC(=O)CNC(=O)[C@H](CCCCN)NC(=O)[C@H](Cc2c[nH]cn2)NC(=O)[C@H](CCC(N)=O)NC(=O)[C@H](C)NC(=O)CNC(=O)[C@H](CCC(=O)O)NC(=O)[C@H](Cc2ccc(O)cc2)NC(=O)[C@H](CCCCN)NC(=O)[C@H](CCCNC(=N)N)NC(=O)[C@H](C)NC(=O)COCCOCCNC(=O)COCCOCCNC(=O)COCCOCCNC(=O)COCCOCCNC(=O)CC[C@H](NC(=O)CC[C@H](NC(=O)CCCCCCCCCCCCCCCCC(=O)O)C(=O)O)C(=O)O)CSSC[C@@H](C(=O)O)NC(=O)CNC(=O)[C@H](CC(C)C)NC(=O)CNC(=O)[C@H](CO)NC(=O)[C@H](CC(C)C)NC(=O)[C@H](CO)NC(=O)CNC1=O", "note": "[compound 1432] ({C18 diacid-γGlu-γGlu-AEEA-AEEA-AEEA-AEEA}-ARKYEGAQHKGGSQGCFGLPLDRIGSLSGLGC-OH; disulfide 16-32)", "values": [{"measurement": "hNPR2 0% HSA. [EC50% rel CNP]", "value": 26.0, "unit": "%"}]}, {"compound": "CC[C@H](C)[C@@H]1NC(=O)[C@H](CCCNC(=N)N)NC(=O)[C@H](CC(=O)O)NC(=O)[C@H](CC(C)C)NC(=O)[C@@H]2CCCN2C(=O)[C@H](CC(C)C)NC(=O)CNC(=O)[C@H](Cc2ccccc2)NC(=O)[C@@H](NC(=O)CNC(=O)[C@H](CO)NC(=O)[C@H](CO)NC(=O)[C@H](CC(C)C)NC(=O)CNC(=O)[C@H](CCCCN)NC(=O)[C@H](CCCCN)NC(=O)[C@H](CCC(N)=O)NC(=O)[C@H](C)NC(=O)CNC(=O)[C@H](CCCCN)NC(=O)[C@H](Cc2ccc(O)cc2)NC(=O)COCCOCCNC(=O)COCCOCCNC(=O)COCCOCCNC(=O)CC[C@H](NC(=O)CC[C@H](NC(=O)CCCCCCCCCCCCCCCCC(=O)O)C(=O)O)C(=O)O)CSSC[C@@H](C(=O)O)NC(=O)CNC(=O)[C@H](CC(C)C)NC(=O)CNC(=O)[C@H](CO)NC(=O)[C@H](CC(C)C)NC(=O)[C@H](CO)NC(=O)CNC1=O", "note": "[compound 1356] ({C18 diacid-γGlu-γGlu-AEEA-AEEA-AEEA}-YKGAQKKGLSSGCFGLPLDRIGSLSGLGC-OH; disulfide 13-29; C-terminus assumed)", "values": [{"measurement": "hNPR2 0% HSA. [EC50% rel CNP]", "value": 22.4, "unit": "%"}]}, {"compound": "CC[C@H](C)[C@@H]1NC(=O)[C@H](CCCNC(=N)N)NC(=O)[C@H](CC(=O)O)NC(=O)[C@H](CC(C)C)NC(=O)[C@@H]2CCCN2C(=O)[C@H](CC(C)C)NC(=O)CNC(=O)[C@H](Cc2ccccc2)NC(=O)[C@@H](NC(=O)CNC(=O)[C@H](CCCCN)NC(=O)[C@H](CO)NC(=O)[C@H](CC(C)C)NC(=O)CNC(=O)[C@H](CCCCN)NC(=O)[C@H](CCCCN)NC(=O)[C@H](CCC(N)=O)NC(=O)[C@H](C)NC(=O)CNC(=O)[C@H](CCC(=O)O)NC(=O)[C@H](Cc2ccc(O)cc2)NC(=O)COCCOCCNC(=O)COCCOCCNC(=O)CC[C@H](NC(=O)CCCCCCCCCCCCCCCCC(=O)O)C(=O)O)CSSC[C@@H](C(=O)O)NC(=O)CNC(=O)[C@H](CC(C)C)NC(=O)CNC(=O)[C@H](CO)NC(=O)[C@H](CC(C)C)NC(=O)[C@H](CO)NC(=O)CNC1=O", "note": "[compound 1225] ({C18 diacid-γGlu-AEEA-AEEA}-YEGAQKKGLSKGCFGLPLDRIGSLSGLGC-OH; disulfide 13-29)", "values": [{"measurement": "hNPR2 0% HSA. [EC50% rel CNP]", "value": 29.4, "unit": "%"}]}, {"compound": "CC[C@H](C)[C@@H]1NC(=O)[C@H](CCCNC(=N)N)NC(=O)[C@H](CC(=O)O)NC(=O)[C@H](CC(C)C)NC(=O)[C@@H]2CCCN2C(=O)[C@H](CC(C)C)NC(=O)CNC(=O)[C@H](Cc2ccccc2)NC(=O)[C@@H](NC(=O)CNC(=O)[C@H](CO)NC(=O)[C@H](CO)NC(=O)[C@H](CC(C)C)NC(=O)CNC(=O)[C@H](CCCCN)NC(=O)[C@H](CCCCN)NC(=O)[C@H](CCC(N)=O)NC(=O)[C@H](C)NC(=O)CNC(=O)[C@H](CCCCN)NC(=O)[C@H](Cc2ccc(O)cc2)NC(=O)[C@H](CCCCN)NC(=O)[C@H](CCCNC(=N)N)NC(=O)[C@H](C)NC(=O)CC[C@H](NC(=O)CC[C@H](NC(=O)CC[C@H](NC(=O)CC[C@H](NC(=O)CCCCCCCCCCCCCCCCC(=O)O)C(=O)O)C(=O)O)C(=O)O)C(=O)O)CSSC[C@@H](C(=O)O)NC(=O)CNC(=O)[C@H](CC(C)C)NC(=O)CNC(=O)[C@H](CO)NC(=O)[C@H](CC(C)C)NC(=O)[C@H](CO)NC(=O)CNC1=O", "note": "[compound 1386] ({C18 diacid-γGlu-γGlu-γGlu-γGlu}-ARKYKGAQKKGLSSGCFGLPLDRIGSLSGLGC-OH; disulfide 16-32)", "values": [{"measurement": "hNPR2 0% HSA. [EC50% rel CNP]", "value": 36.9, "unit": "%"}]}, {"compound": "CC[C@H](C)[C@@H]1NC(=O)[C@H](CCCNC(=N)N)NC(=O)[C@H](CCC(=O)O)NC(=O)[C@H](CC(C)C)NC(=O)[C@H](CCCCN)NC(=O)[C@H](CC(C)C)NC(=O)CNC(=O)[C@H](Cc2ccccc2)NC(=O)[C@@H](NC(=O)CNC(=O)[C@H](CCCCN)NC(=O)[C@H](CO)NC(=O)[C@H](CC(C)C)NC(=O)CNC(=O)[C@H](CCCCN)NC(=O)[C@H](CCCCN)NC(=O)[C@H](CCC(N)=O)NC(=O)[C@H](C)NC(=O)CNC(=O)[C@H](CCCCN)NC(=O)[C@H](Cc2ccc(O)cc2)NC(=O)[C@H](CCCCN)NC(=O)[C@H](CCCNC(=N)N)NC(=O)[C@H](C)NC(=O)COCCOCCNC(=O)COCCOCCNC(=O)CC[C@H](NC(=O)CCCCCCCCCCCCCCCCC(=O)O)C(=O)O)CSSC[C@@H](C(=O)O)NC(=O)CNC(=O)[C@H](CC(C)C)NC(=O)CNC(=O)[C@H](CO)NC(=O)[C@H](CC(C)C)NC(=O)[C@H](CO)NC(=O)CNC1=O", "note": "[compound 0776] ({C18 diacid-γGlu-AEEA-AEEA}-ARKYKGAQKKGLSKGCFGLKLERIGSLSGLGC-OH; disulfide 16-32)", "values": [{"measurement": "EC50", "setting": "0% HSA, HEK293-hNPR2/GloSensor cells", "value": 0.58, "unit": "nM"}, {"measurement": "hNPR2 0% HSA. [EC50% rel CNP]", "value": 33.2, "unit": "%"}]}, {"compound": "CC[C@H](C)[C@@H]1NC(=O)[C@H](CCCNC(=N)N)NC(=O)[C@H](CC(=O)O)NC(=O)[C@H](CC(C)C)NC(=O)[C@@H]2CCCN2C(=O)[C@H](CC(C)C)NC(=O)CNC(=O)[C@H](Cc2ccccc2)NC(=O)[C@@H](NC(=O)CNC(=O)[C@H](CCC(N)=O)NC(=O)[C@H](CO)NC(=O)[C@H](CC(C)C)NC(=O)CNC(=O)[C@H](CCCCN)NC(=O)[C@H](CCCCN)NC(=O)[C@H](CCC(N)=O)NC(=O)[C@H](C)NC(=O)CNC(=O)[C@H](CCCCN)NC(=O)[C@H](Cc2ccc(O)cc2)NC(=O)COCCOCCNC(=O)COCCOCCNC(=O)COCCOCCNC(=O)COCCOCCNC(=O)CC[C@H](NC(=O)CC[C@H](NC(=O)CCCCCCCCCCCCCCCCC(=O)O)C(=O)O)C(=O)O)CSSC[C@@H](C(=O)O)NC(=O)CNC(=O)[C@H](CC(C)C)NC(=O)CNC(=O)[C@H](CO)NC(=O)[C@H](CC(C)C)NC(=O)[C@H](CO)NC(=O)CNC1=O", "note": "[compound 1478] ({C18 diacid-γGlu-γGlu-AEEA-AEEA-AEEA-AEEA}-YKGAQKKGLSQGCFGLPLDRIGSLSGLGC-OH; disulfide 13-29; C-terminus assumed)", "values": [{"measurement": "hNPR2 0% HSA. [EC50% rel CNP]", "value": 26.6, "unit": "%"}]}]}
